Measurements as given in patent publication US20120230951A1 (priority 2011, published 2012).

Experiments:
[1] = system: HCV GT1b replicon (2209-23 cell line, GT-1b Con1 subgenomic replicon in Huh-7); assay: HCV GT1b replicon luciferase reporter assay; format: cell-based; settings: Hepatitis C virus, Huh-7, 2209-23 cells (GT-1b Con1), Renilla luciferase read 72 hours after addition of compounds, read-out: GT-1b (IC50)
Excerpt: Determination of compounds HCV GT1b inhibitory replicon activity using the replicon luciferase reporter assay
The 2209-23 cell line was developed at Roche by stable transfection of the hepatoma cell line Huh-7 with a GT-1b Con1 subgenomic bicistronic replicon as previously described. Subgenomic replicon cell line was established in cured Huh7 cells, obtained from R. Bartenschlager (J. Virol. 2003 March; 77 (5):3007-19) The GT-1a H77 subgenomic replicon vector pRLuc H771b 75 S/I, was created by replacing the non structural region of the GT-1b Con1 subgenomic replicon by the one of the H77 strain, except for the first 75 amino acids of the NS3 protein that are from GT-1b Con1 strain. (J. Virol. 2001 77:5352-59) The GT-1a pRLuc H771b 75 S/I subgenomic replicon cell line was established in cured Huh7 cells, obtained from R. Bartenschlager. (J. Virol. 2003 March; 77 (5):3007-19)
All the subgenomic replicon cell lines were cultured in Dulbecco's Modified Eagle Medium (DMEM-Glutamax™-I; Invitrogen Cat #10569-010). The medium was supplemented with 10% Fetal Bovine Serum (Invitrogen Cat #10082-147), 1% penicillin/streptomycin (Mediatech Cat #30-002-CI) and 500 μg/ml of G418 (Mediatech Cat #30-234-CI). Cells were maintained at 37° C. in a humidified 5% CO2 atmosphere.
2209-23 cells were plated at a cell density of 5000 cells per well in 96 well plates (Becton Dickinson, Cat #35 3296). Cells were plated in 90 μl of Dulbecco's Modified Eagle Medium (DMEM-Glutamax™-I), (Invitrogen Cat #10569-010) medium was supplemented with 5% Fetal Bovine Serum (Invitrogen Cat #10082-147), 1% penicillin/streptomycin (Mediatech Cat #30-002-CI). The pRluc H771b 75 S/I cells were plated in 96-well plate at 3000 cells/well in DMEM-Glutamax™-I containing 5% FBS and 1% penicillin/streptomycin in 90 μl final volume. Cells were allowed to equilibrate for 24 hours at 37° C. and 5% CO2 at which time compounds were added. Compounds (or medium as a control) were added 24 hours post-plating in 3 fold dilutions at a final DMSO concentration of 1% in 10 ul volume. Renilla luciferase reporter signal was read 72 hours after addition of compounds using the Renilla Luciferase Assay System (Promega, cat #E2820). EC50 values were defined as the compound concentration at which a 50% reduction in the levels of renilla luciferase reporter was observed as compared to control samples in the absence of compound and was determined by non-linear fitting of compound dose-response data. The EC50 was approximated if maximum percentage inhibition was less than 90% and more than 70%.

[2] = system: GT-1a pRLuc H771b 75 S/I subgenomic replicon cell line; assay: HCV GT-1a replicon luciferase reporter assay; format: cell-based; settings: Hepatitis C virus, GT1A, 72 h, read-out: GT-1a (IC50) (nM)
Procedure, shortened: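 Huh-7-derived subgenomic replicon cells (GT-1b Con1 2209-23, 5000/well; GT-1a H77 chimera with Con1 NS3 first 75 aa, 3000/well) in 5% FBS DMEM; compounds added 24 h post-plating, 3-fold dilutions, 1% DMSO. Renilla luciferase read after 72 h; EC50 is 50% signal reduction versus untreated, non-linear fit.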

Compound	IC50 [1]	IC50 [2]
COC(=O)N[C@@H](CCS(C)(=O)=O)C(=O)N1CCC[C@H]1c1ncc(-c2ccc(-c3ccc(-c4cnc([C@@H]5Cc6cccc7c6N5C(=O)[C@@H](NC(=O)OC)CC7)[nH]4)cc3)cc2)[nH]1 [Compound I-51, {(2S,5S)-2-[5-(4-{2-[(S)-1-((S)-4-Methanesulfonyl-2-methoxycarbonylamino-butyl)-pyrolidin-2-yl]-3H-imidazol-4-yl}-biphenyl-4-yl)-1H-imidazol-2-yl]-4-oxo-1,2,4,5,6,7-hexahydro-azepino[3,2,1-hi]indol-5-yl}-carbamic acid methyl ester]	0.03 nM	16.6 nM
COC(=O)N[C@H]1CCc2cccc3c2N(C1=O)[C@H](c1ncc(-c2ccc(-c4cnc5cc(-c6cnc([C@@H]7CCCN7C(=O)[C@@H](NC(=O)OC)C(C)C)[nH]6)ccc5n4)cc2)[nH]1)C3 [Compound I-52, ((2S,5S)-2-{5-[4-(6-{2-[(S)-1-((S)-2-Methoxycarbonylamino-3-methyl-butyryl)-pyrrolidin-2-yl]-3H-imidazol-4-yl}-quinoxalin-2-yl)-phenyl]-1H-imidazol-2-yl}-4-oxo-1,2,4,5,6,7-hexahydro-azepino[3,2,1-hi]indol-5-yl)-carbamicacid methyl ester]	0.03 nM	0.41 nM
COC(=O)N[C@H]1CCc2cccc3c2N(C1=O)[C@H](c1ncc(-c2ccc(-c4cnc5cc(-c6cnc([C@@H]7CCCN7C(=O)[C@H](NC(=O)OC)c7ccccc7)[nH]6)ccc5n4)cc2)[nH]1)C3 [Compound I-55, ((2S,5S)-2-{5-[4-(6-{2-[(S)-1-((R)-2-Methoxycarbonylamino-2-phenyl-acetyl)-pyrrolidin-2-yl]-3H-imidazol-4-yl}-quinoxalin-2-yl)-phenyl]-1H-imidazol-2-yl}-4-oxo-1,2,4,5,6,7-hexahydro-azepino[3,2,1-hi]indol-5-yl)-carbamic acid methyl ester]	0.01 nM	0.79 nM
COC(=O)N[C@H]1CCc2cccc3c2N(C1=O)[C@H](c1ncc(-c2ccc4nc(-c5ccc(-c6cnc([C@@H]7CCCN7C(=O)[C@@H](NC(=O)OC)C(C)C)[nH]6)cc5)cnc4c2)[nH]1)C3 [Compound I-59, ((2S,5S)-2-{5-[2-(4-{2-[(S)-1-((S)-2-Methoxycarbonylamino-3-methyl-butyryl)-pyrrolidin-2-yl]-3H-imidazol-4-yl}-phenyl)-quinoxalin-6-yl]-1H-imidazol-2-yl}-4-oxo-1,2,4,5,6,7-hexahydro-azepino[3,2,1-hi]indol-5-yl)-carbamic acid methyl ester]	0.07 nM	0.709 nM
